The values below are quoted from earlier work in patent US11610144B2, “Biosignature discovery for substance use disorder using statistical learning” (BioRealm LLC, priority 2018, dated 2023).

Entries after “also recorded” stand apart in the source; their conditions may differ.

One data set concerns smokers. To be noted: meta-analyses of RCTs.
For data set [1], the system named is smokers, slow and normal nicotine metabolizers. The conditions noted are these: NMR from direct biochemical measurement.

`c1cnc2cc3c(cc2n1)[C@@H]1CNC[C@H]3C1` [VAR, varenicline]: the “smoking cessation efficacy compared with placebo” value in the data set with smokers is “significantly more effective than placebo”. Besides, the “response to treatment, VAR versus NRT” value in data set [1] is reported as “responded significantly better than those randomized to NRT; also recorded: responded significantly better to VAR than to NRT”.

Take `CC(NC(C)(C)C)C(=O)c1cccc(Cl)c1` (stereo not drawn) [BUP, bupropion]: the “smoking cessation efficacy compared with placebo” value in the data set with smokers was “significantly more effective than placebo”.
